Data published in US20080194585A1, “Fungicidal Pyrazine Derivatives” (priority 2005, published 2008).
Marks after values point to notes of the source that are not given here.

Columns and labels:
Sclerotinia sclerotiorum = assay: Test C: cucumber white mold, preventive spray on cucumber seedlings; conditions: for pest or weed control at 200 ppm: Sclerotinia sclerotiorum, in Cucumis sativus, 168 h, read-out: Test C disease control rating, 200 ppm
[1] = test system: Puccinia recondita f. sp. tritici; assay: Test K: wheat leaf rust, preventive spray on wheat seedlings; conditions: for pest or weed control at 200 ppm: Puccinia recondita, in Triticum aestivum, 192 h, read-out: Test K disease control rating
fusarium graminearium = assay: Test I: wheat head scab, preventive spray on wheat seedlings; conditions: for pest or weed control at 200 ppm: Fusarium, in Triticum aestivum, topical, 192 h, read-out: Test I disease control rating, 200 ppm; for Test I disease control rating: 200 ppm
Description: (the causal agent of wheat head scab) and incubated in a saturated atmosphere at 20° C. for 72 h, and then moved to a growth chamber at 22° C. for 5 days, after which disease ratings were made.

Plasmopara viticola = assay: Test D: grape downy mildew, spray after inoculation of grape seedlings; type: in vivo; conditions: for pest or weed control at 200 ppm: Plasmopara viticola, 168 h, read-out: Test D disease control rating
Description: Upon removal, disease ratings were made. […] A dash (-) indicates no test results.

[2] = test system: Colletotrichum orbiculare; assay: Test B: cucumber Colletotrichum anthracnose, preventive spray on cucumber seedlings; conditions: for pest or weed control at 200 ppm: Colletotrichum orbiculare, in Cucumis sativus, 144 h, read-out: Test B disease control rating, 200 ppm
Phytophthora infestans = assay: whole plant or invertebrate; type: in vivo
[3] = test system: Erysiphe graminis f. sp. tritici; assay: Test L: wheat powdery mildew, preventive spray on wheat seedlings; conditions: for pest or weed control at 200 ppm: Blumeria graminis, in Triticum aestivum, 168 h, read-out: Test L disease control rating, 200 ppm
Septoria nodorum = assay: Test H: wheat glum blotch, preventive spray on wheat seedlings; conditions: for pest or weed control at 200 ppm: Parastagonospora nodorum, in Triticum aestivum, topical, 168 h, read-out: Test H disease control rating, 200 ppm
Description: (the causal agent of wheat glum blotch) and incubated in a saturated atmosphere at 20° C. for 48 h, and then moved to a growth chamber at 22° C. for 5 days, after which disease ratings were made.

Pythium aphanidermatum = assay: Test A: bluegrass pythium blight, preventive spray on bluegrass seedlings; conditions: for pest or weed control at 200 ppm: Pythium aphanidermatum, 120 h, read-out: Test A disease control rating
Rhizoctonia oryzae = assay: Test G: turf brown patch, preventive spray on creeping bent grass seedlings; conditions: for pest or weed control at 200 ppm: Waitea circinata, in Agrostis stolonifera, topical, 144 h, read-out: Test G disease control rating, 200 ppm
Description: (the causal agent of turf brown patch) and incubated in a saturated atmosphere at 27° C. for 24 h, and then moved to a growth chamber at 27° C. for 5 days, after which disease ratings were made.

Botrytis cinerea = assay: Test E: tomato botrytis, preventive spray on tomato seedlings; conditions: for pest or weed control at 200 ppm: Botrytis cinerea, in Solanum lycopersicum, topical, 72 h, read-out: Test E disease control rating
Septoria tritici = assay: Test J: wheat leaf blotch, preventive spray on wheat seedlings; type: in vivo; conditions: 100 = 100% disease control, 0 = no control
Description: A dash (-) indicates no test results.

[4] = 200 ppm, 100 = 100% disease control, 0 = no control
[5] = 40 ppm (marked *), 100 = 100% disease control, 0 = no control

| SMILES | Test C disease control rating (Sclerotinia sclerotiorum; 200 ppm) [%] | Test K disease control rating ([1]; 200 ppm) [%] | Test I disease control rating (fusarium graminearium) [%] | Test D disease control rating (Plasmopara viticola; 200 ppm) [%] | Test B disease control rating ([2]; 200 ppm) [%] | Test F disease control rating (Phytophthora infestans; 200 ppm) [%] | Test L disease control rating ([3]; 200 ppm) [%] | Test H disease control rating (Septoria nodorum; 200 ppm) [%] | Test A disease control rating (Pythium aphanidermatum; 200 ppm) [%] | Test G disease control rating (Rhizoctonia oryzae; 200 ppm) [%] | Test E disease control rating (Botrytis cinerea; 200 ppm) [%] | other results |
| --- | --- | --- | --- | --- | --- | --- | --- | --- | --- | --- | --- | --- |
| CC(C)Cn1c(-c2c(F)cccc2F)c(Cl)nc(-n2cccn2)c1=O [Compound 1, 5-Chloro-6-(2,6-difluorophenyl)-1-(2-methylpropyl)-3-(1H-pyrazol-1-yl)-2(1H)-pyrazinone] |  |  |  |  |  |  |  |  |  |  |  | pest or weed control at 200 ppm (Sclerotinia sclerotiorum): 0%; pest or weed control at 200 ppm [1]: 99%; pest or weed control at 200 ppm (fusarium graminearium): 0%; pest or weed control at 200 ppm (Plasmopara viticola; 200 ppm): 0%; pest or weed control at 200 ppm [2]: 0%; pest or weed control at 200 ppm (Phytophthora infestans; Phytophthora infestans, in Solanum lycopersicum, topical, 144 h, read-out: Test F disease control rating): 0%; pest or weed control at 200 ppm [3]: 93%; pest or weed control at 200 ppm (Septoria nodorum): 99%; pest or weed control at 200 ppm (Pythium aphanidermatum): 0%; pest or weed control at 200 ppm (Rhizoctonia oryzae): 78%; pest or weed control at 200 ppm (Botrytis cinerea): 100% |
| CC(C)Cn1c(-c2c(F)cccc2F)c(Cl)nc(C#N)c1=O [Compound 5, 6-Chloro-5-(2,6-difluorophenyl)-3,4-dihydro-4-(2-methylpropyl)-3-oxopyrazinecarbonitrile] |  |  |  |  |  |  |  |  |  |  |  | pest or weed control at 200 ppm (Sclerotinia sclerotiorum): 0%; pest or weed control at 200 ppm [1]: 99%; pest or weed control at 200 ppm (fusarium graminearium): 20%; pest or weed control at 200 ppm (Plasmopara viticola; 200 ppm): 24%; pest or weed control at 200 ppm [2]: 33%; pest or weed control at 200 ppm [3]: 97%; pest or weed control at 200 ppm (Septoria nodorum): 0%; pest or weed control at 200 ppm (Pythium aphanidermatum): 71%; pest or weed control at 200 ppm (Rhizoctonia oryzae): 26%; pest or weed control at 200 ppm (Botrytis cinerea): 71% |
| Cn1c(-c2ccccc2F)c(Cl)nc(-n2cncn2)c1=O [Compound 15] | 0 | 0 | 0 | 0 | 0 | 0 | 0 | 0 | 0 | 0 | 0 |  |
| CC(C)Cn1c(-c2c(F)cccc2Cl)c(Cl)nc(-n2cccn2)c1=O [compound 9] | 98 | 100 | 80 | 49 | 100 | 88 | 99 | 100 | 62 | 82 | 100 |  |
| Cn1c(-c2ccccc2F)c(Cl)nc(-n2cccn2)c1=O [compound 14] | 0 | 0 | 0 | 0 | 0 | 27 | 21 | 0 | 0 | 0 | 79 |  |
| O=c1c(N2CCC=N2)nc(Cl)c(-c2c(F)cccc2F)n1CC1CC1 [compound 16] | 0 | 68 | 0 | 8 | 0 | 84 | 26 | 0 | 0 | 0 | 99 |  |
| CCC(C)Cn1c(-c2c(F)cc(F)cc2F)c(Cl)nc(-n2cncn2)c1=O (centres unmarked) [compound 20] | 0 | 100 | 0 | 0 | 0 | 30 | 98 | 98 | 0 | 26 | 100 |  |
| CCC(C)Cn1c(-c2c(F)cccc2F)c(Cl)nc(C#N)c1=O (centres unmarked) [compound 21] | 0 | 96 | 0 | 15 | 0 | 0 | 96 | 0 | 0 | 31 | 99 |  |
| CC(C)Cn1c(-c2cccc3c2OCO3)c(Cl)nc(-n2cccn2)c1=O [compound 251] |  |  |  |  |  |  |  |  |  |  |  | Test C disease control rating (Sclerotinia sclerotiorum; [4]): 0%; Test K disease control rating [1, 4]: 17%; Test D disease control rating (Plasmopara viticola; [4]): 0%; Test B disease control rating [2, 4]: 0%; Test J disease control rating (Septoria tritici; 200 ppm): 97%; Test F disease control rating (Phytophthora infestans; [4]): 0%; Test L disease control rating [3, 4]: 0%; Test H disease control rating (Septoria nodorum; [4]): 82%; Test A disease control rating (Pythium aphanidermatum; [4]): 0%; Test G disease control rating (Rhizoctonia oryzae; [4]): 21%; Test E disease control rating (Botrytis cinerea; [4]): 99% |
| CC(C)Cn1c(-c2ccc3c(c2)OC(F)(F)O3)c(Cl)nc(-n2cccn2)c1=O [compound 252] |  |  |  |  |  |  |  |  |  |  |  | Test C disease control rating (Sclerotinia sclerotiorum; [4]): 0%; Test K disease control rating [1, 4]: 0%; Test D disease control rating (Plasmopara viticola; [4]): 0%; Test B disease control rating [2, 4]: 0%; Test J disease control rating (Septoria tritici; 200 ppm): 53%; Test F disease control rating (Phytophthora infestans; [4]): 0%; Test L disease control rating [3, 4]: 0%; Test H disease control rating (Septoria nodorum; [4]): 0%; Test A disease control rating (Pythium aphanidermatum; [4]): 0%; Test G disease control rating (Rhizoctonia oryzae; [4]): 0%; Test E disease control rating (Botrytis cinerea; [4]): 0% |
| CC(C)Cn1c(-c2cc3c(cc2Cl)OCO3)c(Cl)nc(-n2cccn2)c1=O [compound 253] |  |  |  |  |  |  |  |  |  |  |  | Test C disease control rating (Sclerotinia sclerotiorum; [4]): 0%; Test K disease control rating [1, 4]: 0%; Test D disease control rating (Plasmopara viticola; [4]): 0%; Test B disease control rating [2, 4]: 0%; Test J disease control rating (Septoria tritici; 200 ppm): 66%; Test F disease control rating (Phytophthora infestans; [4]): 0%; Test L disease control rating [3, 4]: 0%; Test H disease control rating (Septoria nodorum; [4]): 0%; Test A disease control rating (Pythium aphanidermatum; [4]): 0%; Test G disease control rating (Rhizoctonia oryzae; [4]): 0%; Test E disease control rating (Botrytis cinerea; [4]): 0% |
| Cc1cc(C)c(-c2c(Cl)nc(-n3cccn3)c(=O)n2CC(C)C)c(C)c1 [compound 254] |  |  |  |  |  |  |  |  |  |  |  | Test C disease control rating (Sclerotinia sclerotiorum; [5]): 0* %; Test K disease control rating [1, 5]: 59* %; Test D disease control rating (Plasmopara viticola; [5]): 0* %; Test B disease control rating [2, 5]: 0* %; Test J disease control rating (Septoria tritici; 40 ppm (marked *)): 99* %; Test F disease control rating (Phytophthora infestans; [5]): 0* %; Test L disease control rating [3, 5]: 54* %; Test H disease control rating (Septoria nodorum; [5]): 0* %; Test A disease control rating (Pythium aphanidermatum; [5]): 0* %; Test G disease control rating (Rhizoctonia oryzae; [5]): 41* %; Test E disease control rating (Botrytis cinerea; [5]): 94* % |
